In one assay the target is T1, MALT1 (Homo sapiens, UniProt Q9UDY8).
T1 construct: Avi-tagged FL MALT-1 (Pharmaron, stored at −70° C.); Avi tag
T1 sequence (Q9UDY8 1-824): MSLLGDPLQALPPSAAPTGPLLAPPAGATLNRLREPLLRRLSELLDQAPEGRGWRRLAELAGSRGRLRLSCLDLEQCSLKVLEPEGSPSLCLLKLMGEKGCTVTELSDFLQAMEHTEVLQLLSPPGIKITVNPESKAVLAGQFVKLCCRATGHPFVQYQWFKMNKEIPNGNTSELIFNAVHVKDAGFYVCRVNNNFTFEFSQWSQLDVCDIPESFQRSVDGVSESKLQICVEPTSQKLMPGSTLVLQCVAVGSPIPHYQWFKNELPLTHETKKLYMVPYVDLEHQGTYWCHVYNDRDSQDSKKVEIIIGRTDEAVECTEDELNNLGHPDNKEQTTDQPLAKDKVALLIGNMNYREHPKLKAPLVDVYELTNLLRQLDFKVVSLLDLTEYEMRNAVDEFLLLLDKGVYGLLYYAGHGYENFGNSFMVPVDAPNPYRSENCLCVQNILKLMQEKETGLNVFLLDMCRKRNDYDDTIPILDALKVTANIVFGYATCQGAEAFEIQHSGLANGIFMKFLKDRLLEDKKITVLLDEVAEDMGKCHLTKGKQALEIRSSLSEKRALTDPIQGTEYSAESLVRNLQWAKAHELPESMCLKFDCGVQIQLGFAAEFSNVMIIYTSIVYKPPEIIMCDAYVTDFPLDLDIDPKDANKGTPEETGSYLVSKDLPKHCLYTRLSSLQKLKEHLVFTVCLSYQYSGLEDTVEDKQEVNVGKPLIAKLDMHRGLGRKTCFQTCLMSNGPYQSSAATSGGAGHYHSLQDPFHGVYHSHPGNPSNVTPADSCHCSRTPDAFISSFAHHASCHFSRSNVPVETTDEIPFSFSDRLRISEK
Put plainly: MALT-1 Fluorogenic Peptide Cleavage Assay (MALT1 inhibition assay). In kind it is biochemical. The conditions noted are these: Avi-tagged FL MALT-1, Ac-LRSR-AMC peptide substrate, 30 min pre-incubation, 90 min reaction. In a few lines:
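Avi-tagged full-length MALT1 pre-incubated 30 min with compound (2% DMSO final), then cleavage of Ac-LRSR-AMC followed over 90 min at room temperature. AMC fluorescence read at 342/441 nm; % inhibition fitted to sigmoidal curves for IC50.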

For the next assay, the system named is NF-kB. Put plainly: NF-kB reporter assay in Jurkat cells stimulated with aCD3/aCD28/PMA. In kind it is cell-based. The settings on record: Homo sapiens, Jurkat, Jurkat cells, 1 hr compound incubation, aCD3/aCD28/PMA stimulation 4 hr, One-Glo readout; read-out: NF-kB Reporter Assay IC50. In a few lines:
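Jurkat cells (25,000/well, serum-free RPMI 1640) preincubated 1 hr at 37° C with serially diluted compound, then stimulated with aCD3/aCD28/PMA (final 5 μg/mL, 5 μg/mL, 0.03 μg/mL) for 4 hr. Reporter luminescence read with One-Glo; IC50 derived.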

The text below walks through data of patent US20240150365A1 (Hotspot Therapeutics, Inc., priority 2022, published 2024).

As a reminder, the IC50 is the point on the concentration scale where inhibition reaches its midpoint.

As to `COc1ncc2cnn(C)c2c1N(C)S(=O)(=O)c1ccc(-n2ccc(C(F)(F)F)n2)nc1` [Example I-195, N-(6-Methoxy-1-Methyl-1H-Pyrazolo[4,3-C]Pyridin-7-yl)-N-Methyl-6-(3-(Trifluoromethyl)-1H-Pyrazol-1-yl)Pyridine-3-Sulfonamide], the IC50 at MALT1 and in the assay on NF-kB was less than 400 nM each time.
As for `COc1ncc2cnn(C)c2c1NS(=O)(=O)c1ccc(-n2ccc(C)n2)nc1` [Example I-197, N-{6-methoxy-1-methylpyrazolo[4,3-c]pyridin-7-yl}-6-(3-methylpyrazol-1-yl)pyridine-3-sulfonamide], the IC50 on MALT1 and in the assay with NF-kB was less than 400 nM each time.
Take `Cn1[nH]c(=O)c2c(NS(=O)(=O)c3ccc(-n4cc(C(F)(F)F)cn4)nc3)cccc21` [Example I-198, N-(1-methyl-3-oxo-2,3-dihydro-1H-indazol-4-yl)-6-(4-(trifluoromethyl)-1H-pyrazol-1-yl)pyridine-3-sulfonamide]: the IC50 against MALT1 is greater than 2500 nM; with NF-kB, 1000 to 2500 nM.
As to `Cc1ncc2cccc(NS(=O)(=O)c3ccc(-n4cc(C(F)(F)F)cn4)nc3)n12` [Example I-199, N-(3-methylimidazo[1,5-a]pyridin-5-yl)-6-(4-(trifluoromethyl)-1H-pyrazol-1-yl)pyridine-3-sulfonamide], the values for the IC50 on MALT1 and with NF-kB were greater than 2500 nM and 1000 to 2500 nM, respectively.
Turning to `COc1ncc2cnn(C)c2c1NS(=O)(=O)c1ccc(-c2cc(C(F)(F)F)n[nH]2)nc1` [Example I-200, N-(6-Methoxy-1-Methyl-1H-Pyrazolo[4,3-C]Pyridin-7-yl)-6-(3-(Trifluoromethyl)-1H-Pyrazol-5-yl)Pyridine-3-Sulfonamide], the half-maximal inhibitory concentration (IC50) against MALT1 and with NF-kB was less than 400 nM throughout.
Turning to `Cn1[nH]c(=O)c2cccc(NS(=O)(=O)c3ccc(-n4cc(C(F)(F)F)cn4)nc3)c21` [Example I-201, N-(1-Methyl-3-Oxo-2,3-Dihydro-1H-Indazol-7-yl)-6-(4-(Trifluoromethyl)-1H-Pyrazol-1-yl)Pyridine-3-Sulfonamide], the concentration for half-maximal inhibition (IC50) at MALT1 and with NF-kB was greater than 2500 nM throughout.
`COc1ccc2cnn(C)c2c1NS(=O)(=O)c1ccc(-n2cc(C)n(C)c2=O)nc1` [Example I-202, 6-(3,4-Dimethyl-2-Oxo-2,3-Dihydro-1H-Imidazol-1-yl)-N-(6-Methoxy-1-Methyl-1H-Indazol-7-yl)Pyridine-3-Sulfonamide]: the IC50 against MALT1 is 400 to 1000 nM; in the assay with NF-kB, less than 400 nM.
The matching figures for `COc1ccc(Cc2ccc3c(c2N)c(=O)n(S(=O)(=O)c2ccc(-n4cc(C(F)(F)F)cn4)nc2)n3C)cc1` [Example I-203]: greater than 2500 nM and less than 400 nM.
For `COc1ncc2cnn(C)c2c1NS(=O)(=O)c1ccc(-c2cc(C(F)F)n[nH]2)nc1` [Example I-204, 6-(3-(Difluoromethyl)-1H-Pyrazol-5-yl)-N-(6-Methoxy-1-Methyl-1H-Pyrazolo[4,3-C]Pyridin-7-yl)Pyridine-3-Sulfonamide], the figures for the IC50 at MALT1 and in the assay on NF-kB were less than 400 nM and 1000 to 2500 nM, respectively.
The matching figures for `COc1ncc2cnn(C)c2c1NS(=O)(=O)c1ccc(-c2cc(C3CC3)n[nH]2)nc1` [Example I-205, 6-(3-Cyclopropyl-1H-Pyrazol-5-yl)-N-(6-Methoxy-1-Methyl-1H-Pyrazolo[4,3-C]Pyridin-7-yl)Pyridine-3-Sulfonamide]: 1000 to 2500 nM and 1000 to 2500 nM.
For `[2H]C([2H])([2H])n1ncc2ccc(OC)c(NS(=O)(=O)c3ccc(-n4cc(C)cn4)nc3)c21` [Example I-206, N-(6-Methoxy-1-(Methyl-D3)-1H-Indazol-7-yl)-6-(4-Methyl-1H-Pyrazol-1-yl)Pyridine-3-Sulfonamide], in that order: less than 400 nM and less than 400 nM.
The matching figures for `Cn1ncc2cccc(NS(=O)(=O)c3ccc(-n4ccc(C5CC5)n4)nc3)c21` [Example I-207, 6-(3-Cyclopropyl-1H-Pyrazol-1-yl)-N-(1-Methyl-1H-Indazol-7-yl)Pyridine-3-Sulfonamide]: 1000 to 2500 nM and less than 400 nM.
Take `Cn1ncc2cccc(NS(=O)(=O)c3ccc(-n4cc(C5CC5)cn4)nc3)c21` [Example I-208, 6-(4-Cyclopropyl-1H-Pyrazol-1-yl)-N-(1-Methyl-1H-Indazol-7-yl)Pyridine-3-Sulfonamide]: the IC50 at MALT1 is 1000 to 2500 nM; in the assay on NF-kB, less than 400 nM.
For `Cn1ccn(-c2ccc(S(=O)(=O)Nc3cccc4cnn(C)c34)cn2)c1=O` [Example I-209, N-(1-Methyl-1H-Indazol-7-yl)-6-(3-Methyl-2-Oxo-2,3-Dihydro-1H-Imidazol-1-yl)Pyridine-3-Sulfonamide], in that order: greater than 2500 nM and less than 400 nM.
With `COc1ccc(-c2ccc(S(=O)(=O)Nc3cccc4cnn(C)c34)cn2)cn1` [Example I-210, 6′-Methoxy-N-(1-Methyl-1H-Indazol-7-yl)-[2,3′-Bipyridine]-5-Sulfonamide], the values for the IC50 at MALT1 and with NF-kB were greater than 2500 nM and less than 400 nM, respectively.
As to `COc1ncc2cnn(C)c2c1NS(=O)(=O)c1ccc(-n2nccc2C(F)(F)F)nc1` [Example I-211, N-(6-Methoxy-1-Methyl-1H-Pyrazolo[4,3-C]Pyridin-7-yl)-6-(5-(Trifluoromethyl)-1H-Pyrazol-1-yl)Pyridine-3-Sulfonamide], the IC50 against MALT1 is greater than 2500 nM; with NF-kB it was 400 to 1000 nM.
The matching figures for `[2H]C([2H])([2H])n1ncc2ccc(OC)c(NS(=O)(=O)c3ccc(-n4cc(Cl)cn4)nc3)c21` [Example I-212, 6-(4-Chloro-1H-Pyrazol-1-yl)-N-(6-Methoxy-1-(Methyl-D3)-1H-Indazol-7-yl)Pyridine-3-Sulfonamide]: less than 400 nM and less than 400 nM.
For `[2H]C([2H])([2H])Oc1ccc2cnn(C)c2c1NS(=O)(=O)c1ccc(-n2cc(Cl)cn2)nc1` [Example I-213, 6-(4-Chloro-1H-Pyrazol-1-yl)-N-(6-(Methoxy-D3)-1-Methyl-1H-Indazol-7-yl)Pyridine-3-Sulfonamide], in that order: less than 400 nM and less than 400 nM.
For `Cn1ncc2cccc(NS(=O)(=O)c3ccc(-c4cnc(C(F)(F)F)s4)nc3)c21` [Example I-214, N-(1-Methyl-1H-Indazol-7-yl)-6-(2-(Trifluoromethyl)Thiazol-5-yl)Pyridine-3-Sulfonamide], in that order: 400 to 1000 nM and less than 400 nM.
On to `COCCn1ncc2cccc(NS(=O)(=O)c3ccc(-n4ccc(C(C)C)n4)nc3)c21` [Example I-215, 6-(3-isopropyl-1H-pyrazol-1-yl)-N-(1-(2-methoxyethyl)-1H-indazol-7-yl)pyridine-3-sulfonamide], for which the IC50 against MALT1 and in the assay with NF-kB was greater than 2500 nM throughout.
In the case of `COCCn1ncc2cccc(NS(=O)(=O)c3ccc(-n4nccc4C4CC4)nc3)c21` [Example I-216, 6-(5-Cyclopropyl-1H-Pyrazol-1-yl)-N-(1-(2-Methoxyethyl)-1H-Indazol-7-yl)Pyridine-3-Sulfonamide], the IC50 at MALT1 and in the assay on NF-kB was greater than 2500 nM throughout.
Regarding `COCCn1ncc2cccc(NS(=O)(=O)c3ccc(-n4cc(C)cn4)nc3)c21` [Example I-217, N-(1-(2-Methoxyethyl)-1H-Indazol-7-yl)-6-(4-Methyl-1H-Pyrazol-1-yl)Pyridine-3-Sulfonamide], the IC50 against MALT1 and in the assay with NF-kB was greater than 2500 nM each time.
As to `COCCn1ncc2cccc(NS(=O)(=O)c3ccc(-c4cnn(C)c4C)nc3)c21` [Example I-218, 6-(1,5-Dimethyl-1H-Pyrazol-4-yl)-N-(1-(2-Methoxyethyl)-1H-Indazol-7-yl)Pyridine-3-Sulfonamide], the IC50 at MALT1 and in the assay on NF-kB was greater than 2500 nM each time.
Regarding `Cn1ncc2cccc(NS(=O)(=O)c3ccc(-c4ccc(Cl)nc4)nc3)c21` [Example I-219, 6′-Chloro-N-(1-Methyl-1H-Indazol-7-yl)-[2,3′-Bipyridine]-5-Sulfonamide], the IC50 against MALT1 is greater than 2500 nM; in the assay with NF-kB, less than 400 nM.
For `Cn1ncc2cccc(NS(=O)(=O)c3ccc(-c4cccnc4Cl)nc3)c21` [Example I-220, 2′-Chloro-N-(1-Methyl-1H-Indazol-7-yl)-[2,3′-Bipyridine]-5-Sulfonamide], in that order: greater than 2500 nM and 400 to 1000 nM.
